Here are results for three molecules from patent US9453835B2, “Method for screening a modulator of a TMEM16 family member” (Kyoto University, priority 2012, dated 2016).

The test system of assay [1] is TMEM16F^flox/flox IFETs. Briefly: Ca2+-induced PS exposure (Cy5-Annexin V binding, flow cytometry). The format is cell-based, mouse. The settings on record: 20° C., 3.0 μM A23187. The procedure: (§1) A, Ca^2+ ionophore induced PS exposure. TMEM16F^flox/flox and TMEM16F^−/− IFETs were treated at 20° C. with 3.0 μM A23187 in the presence of Cy5-labeled Annexin V. Annexin V-binding to the cells was monitored by flow cytometry for 10 min, and expressed in MFI (mean fluorescence intensity).
(§2) The Ca^2+-induced PS exposure were examined as described (20). In brief, 5×10^5 cells were stimulated at 20° C. with 3.0 μM A23187 in 500 μl of 10 mM Hepes-NaOH buffer (pH 7.4) containing 140 mM NaCl, 2.5 mM CaCl2 and 5 μg/ml Propidium Iodide (PI), and 1000-fold-diluted Cy5-labeled Annexin V (Bio Vision, Milpitas, Calif.), and applied to the injection chamber of a FACSAria (BD Bioscience, Franklin Lakes, N.J.) set at 20° C.

The subject of assay [2] is TMEM16F^−/− IFETs. Described as above. The assay is classed as cell-based, mouse. The conditions noted are these: 20° C., 3.0 μM A23187. The method, then: as §1, §2
Assay [3] has as its system TMEM16F^flox/flox IFETs. The assay can be described thus: Ca2+-induced PE exposure (binding of RO-peptide). The format is cell-based, mouse. The settings on record: data not shown.
The test system of assay [4] is TMEM16F^flox/flox IFETs. Briefly: Internalization of NBD-PC and NBD-GalCer. The assay is classed as cell-based, mouse. The settings on record: 15° C., 250 nM A23187. The method, then:
B and C, Ca^2+ ionophore induced lipid internalization. TMEM16F^flox/flox and TMEM16F^−/− IFETs were treated at 15° C. with 250 nM A23187 in the presence of 100 nM NBD-PC (B) or 250 nM NBD-GalCer (C). Using aliquots of the reaction mixture, the BSA-non extractable level of NBD-PC or NBD-GalCer in the SytoxBlue-negative population was determined at the indicated time by FACSAria, and expressed in MFI.
(§3) Cells (10^6) were stimulated at 15° C. with 250 nM A23187 in 1 ml Hank's Balanced Salt Solution (HBSS) (Gibco, Billings, Mont.) containing 1 mM CaCl2, with a fluorescent probe, 100 nM 1-oleoyl-2-{6-[(7-nitro-2-1,3-benzoxadiazol-4-yl)amino]hexanoyl}-sn-glycero-3-phosphocholine (NBD-PC) (Avanti Polar Lipids, Alabaster, Ala.), or 250 nM N-[6-[(7-nitro-2-1,3-benzoxadiazol-4-yl)amino]hexanoyl]-D-galactosyl-β1-1′-sphingosine (C6-NBD galactosyl ceramide or NBD-GalCer) (Avanti Polar Lipids). Aliquots (150 μl) were mixed with 150 μl HBSS containing 5 mg/ml fatty-acid free BSA (Sigma-Aldrich) and 500 nM Sytoxblue (Molecular Probes, Eugene, Oreg.), and analyzed by FACSAria.

The test system of assay [5] is TMEM16D transformants of TMEM16F^−/− IFETs. The assay can be described thus: Internalization of NBD-PC and NBD-GalCer by TMEM16D transformants. The assay is classed as cell-based, mouse. The conditions noted are these: 15° C. The method, then: (§4) A and C, The ability of TMEM16 family members to internalize NBD-PC and NBD-GalCer. TMEM16F^−/− IFETs transformed with the indicated TMEM16 family member were treated at 15° C. with (+) or without (−) 250 nM A23187 in the presence of 100 nM NBD-PC for 4 min (A) or 250 nM NBD-GalCer for 5 min (C), and the internalized, or BSA-non extractable NBD-PC or NBD-GelCer, was quantified by FACSAria, and expressed in MFI.
B, Requirement of Ca^2+ for the constitutive internalization of NBD-PC by TMEM16D. The TMEM16D transformants of TMEM16F^−/− IFETs were treated with 40 μM BAPTA-AM for 30 min in Ca^2+-free RPMI, and incubated at 15° C. for 8 min in HBSS containing 1 mM CaCl2 and 100 nM NBD-PC. The internalized NBD-PC was determined as above, and expressed as percentage of the internalized NBD-PC obtained without BAPTA-AM treatment.
as §3

Assay [6] relates to IFETs expressing TMEM16A, 16B, 16E, 16H, or 16K. The assay can be described thus: Internalization of NBD-PC by TMEM16 transformants without scramblase activity. The conditions noted are these: 250 nM A23187. The assay is classed as cell-based, mouse. The method, then: as §4, §3
Assay [7] deals with IFETs expressing mouse Fas. The assay can be described thus: FasL-induced apoptosis. The format is cell-based. The method, then: E-G, FasL-induced apoptosis. Fas-expressing TMEM16F^flox/flox and TMEM16F^−/− IFETs were treated at 37° C. for 2 h with 60 units/ml FasL in the absence or presence of 50 μM Q-VD-OPh. In E, the cells were permeabilized with 90% methanol, and stained with rabbit anti-active caspase 3 followed by incubation with Alexa 488-labeled goat anti-rabbit IgG. In F, cells were stained with Cy5-labeled Annexin V and PI and analyzed by FACSAria. In G, cells were analyzed by FACSAria before and after FasL treatment; the FSC and SSC profiles are shown.
Apoptosis was induced with FasL as described (25). In brief, IFETs expressing mouse Fas were treated with 60 units/ml FasL at 37° C. for 2 h, and PS exposure was determined by flow cytometry with Cy5-Annexin V. To detect activated caspase 3, cells were fixed at 37° C. for 10 min in PBS containing 1% paraformaldehyde, permeabilized with 90% methanol at −20° C., and stained with rabbit mAb against active caspase 3 (Cell Signaling, Danvers, Mass.). Cells were then incubated with Alexa 488-labeled goat anti-rabbit IgG (Invitrogen), and analyzed by FACSAria.

Setting [8] is: TMEM16F^flox/flox and TMEM16F^−/− IFETs, to the same extent.

On to `CNc1ccc2oc(C[C@H]3O[C@@]4(CC[C@H]3C)O[C@H]([C@H](C)C(=O)c3ccc[nH]3)[C@H](C)C[C@H]4C)nc2c1C(=O)O` [A23187], for which the PS exposure entry in assay [1] is “quickly exposed PS”; in assay [2], “completely absent”. The PE-exposure result in assay [3] is reported as “caused rapid PE-exposure”. In addition, the “internalization of NBD-PC and NBD-GalCer” value in assay [4] is “internalized NBD-PC and NBD-GalCer”. Besides, in assay [5] (250 nM A23187, 100 nM NBD-PC, 4 min, versus constitutive uptake), the NBD-PC internalization result is “strongly enhanced”. In addition, the NBD-GalCer uptake entry in assay [5] (250 nM A23187, 250 nM NBD-GalCer, 5 min, versus constitutive uptake) was “enhanced”. In assay [6], the NBD-PC uptake result was “did not induce”.
Turning to `CC(=O)OCOC(=O)CN(CC(=O)OCOC(C)=O)c1ccccc1OCCOc1ccccc1N(CC(=O)OCOC(C)=O)CC(=O)OCOC(C)=O` [BAPTA-AM], the “NBD-PC uptake observed without Ca2+-ionophore” value in assay [5] (pre-treatment 40 μM BAPTA-AM 30 min, 100 nM NBD-PC, 8 min) is reported as “reduced”.

B1: FasL: Leucine-zipper-tagged human FasL produced in COS7 cells (protein)
chain: QIGHPSPPPEKKELRKVAHLTGKSNSRSMPLEWEDTYGIVLLSGVKYKKGGLVINETGLYFVYSKVYFRGQSCNNLPLSHKVYMRNSKYPQDLVMMEGKMMSYCTTGQMWARSSYLGAVFNLTSADHLYVNVSELSLVNFEESQTFFGLYKL
modifications: left off: small tags and cut ends
notes: Leucine-zipper-tagged human FasL produced in COS7 cells
Consider B1, for which the “caspase 3 activation” value in assay [7] (60 units/ml FasL, 37° C., 2 h) is reported as “efficiently activated”. In assay [7] (60 units/ml FasL, 37° C., 2 h, Cy5-Annexin V), the PS exposure entry was “quickly responded by exposing PS”. For the same molecule, in assay [7] (setting [8]), the “cell size (forward-scattered light, FSC)” value was “decreased” and the “cellular granularity (side-scattered light, SSC)” value is listed as “increased”.
